Source: PubChem BioAssay AID588712 (The Scripps Research Institute Molecular Screening Center, 2011)
Where “and” joins values, the source holds several entries; their conditions need not be identical. Equal values may be shown once. Calls of active or inactive are those of the source. No rule for the calls is given here.

Target: Insulin-degrading enzyme (Homo sapiens) (UniProt P14735)
Experiment: IDE inhibition in live cells – cell-based, fluorescence polarization, late-stage follow-up (AID 588712)
Conditions: cell-based IDE activity

Sequence of Insulin-degrading enzyme (Homo sapiens) (P14735 whole entry, looked up): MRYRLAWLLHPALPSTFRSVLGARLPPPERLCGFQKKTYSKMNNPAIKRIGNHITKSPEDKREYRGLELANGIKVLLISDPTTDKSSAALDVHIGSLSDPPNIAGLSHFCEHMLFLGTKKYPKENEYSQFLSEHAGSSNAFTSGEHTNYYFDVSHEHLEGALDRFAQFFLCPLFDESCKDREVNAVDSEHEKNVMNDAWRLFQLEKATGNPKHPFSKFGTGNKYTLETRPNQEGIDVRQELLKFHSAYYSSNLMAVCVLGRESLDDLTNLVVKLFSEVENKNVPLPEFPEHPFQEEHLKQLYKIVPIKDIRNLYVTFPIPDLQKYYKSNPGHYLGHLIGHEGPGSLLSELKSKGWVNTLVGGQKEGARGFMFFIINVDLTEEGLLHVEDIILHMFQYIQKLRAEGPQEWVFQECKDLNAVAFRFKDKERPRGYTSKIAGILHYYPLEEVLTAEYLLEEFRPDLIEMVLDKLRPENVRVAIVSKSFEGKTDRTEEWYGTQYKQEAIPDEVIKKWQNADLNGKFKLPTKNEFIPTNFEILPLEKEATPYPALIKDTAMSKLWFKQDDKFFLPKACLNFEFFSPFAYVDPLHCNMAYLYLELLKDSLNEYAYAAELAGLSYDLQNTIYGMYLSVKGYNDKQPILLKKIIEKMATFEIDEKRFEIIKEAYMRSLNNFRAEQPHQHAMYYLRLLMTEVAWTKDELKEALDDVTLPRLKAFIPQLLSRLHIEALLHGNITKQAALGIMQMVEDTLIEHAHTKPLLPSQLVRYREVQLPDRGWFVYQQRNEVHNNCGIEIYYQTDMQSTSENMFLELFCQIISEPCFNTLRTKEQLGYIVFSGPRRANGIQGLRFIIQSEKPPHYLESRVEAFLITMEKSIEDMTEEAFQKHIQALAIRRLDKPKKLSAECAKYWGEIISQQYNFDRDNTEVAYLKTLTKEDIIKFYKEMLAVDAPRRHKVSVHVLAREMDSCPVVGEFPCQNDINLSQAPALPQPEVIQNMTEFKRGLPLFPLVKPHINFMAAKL

| SMILES | IC50 |
| --- | --- |
| Cc1ccc(NC(=O)CSc2nnc(-c3cccc(Cl)c3)n2Cc2ccco2)c(C)c1 | > 54.7 µM (inactive) |
| CC(Sc1nnc(-c2cccnc2)n1-c1ccccc1F)C(=O)N1CCCc2ccccc21 (stereo unspecified) | > 54.7 µM (inactive) |
| O=C(Nc1cc(C(F)(F)F)cc(C(F)(F)F)c1)c1csc(-c2ccncc2)n1 | > 54.7 µM (inactive) |
| Cc1nc(-c2cccnc2)sc1C(=O)Nc1cccc(C(F)(F)F)c1 | > 54.7 µM (inactive) |
| COc1cccc(-c2nnc(SCc3nc4ccccc4[nH]3)n2Cc2ccco2)c1 | 9.38 µM |
| COc1ccc(C(=O)N2CCN(C(=O)C3COc4ccccc4O3)CC2)cc1OC (stereo unspecified) | > 54.7 µM (inactive) |
| COc1cc(/C=C2\SC(=S)N(NC(C)=O)C2=O)ccc1OC(=O)c1ccco1 | inactive |
| Cn1c(=O)c(C(=O)CN2CCCc3ccccc32)c(N)n(Cc2ccccc2)c1=O | > 54.7 µM (inactive) |
| Cc1cccc(-c2nnc(SCc3nc4ccccc4[nH]3)n2Cc2ccco2)c1 | 9.21 µM and 8.91 µM |
| COc1ccc(-c2nc(C(=O)Nc3cccc(C(F)(F)F)c3)cs2)cc1 | > 54.7 µM (inactive) |
| O=C(CSc1nnc(-c2cccc(Cl)c2)n1Cc1ccco1)c1ccc2ccccc2c1 | > 54.7 µM (inactive) |
| O=C(C1CC1)N1CCN(c2ccnc3cc(Cl)ccc23)CC1 | > 54.7 µM (inactive) |
| COc1ccc(NC(=O)CSc2nnc(CN3CCOCC3)n2C)cc1Cl | > 54.7 µM (inactive) |
| Cc1ccc(-c2nc(C(=O)Nc3cccc(C(F)(F)F)c3)cs2)cc1 | > 54.7 µM (inactive) |
| O=C(Nc1cccc(C(F)(F)F)c1)c1csc(-c2ccncc2)n1 | 5.74 µM |
| Nc1c(C(=O)Nc2nccs2)sc2nc(-c3cccs3)cc(C(F)(F)F)c12 | > 54.7 µM (inactive) |
| O=C(Nc1ccc2oc(-c3cccnc3)nc2c1)c1ccc2c(c1)OCCO2 | > 54.7 µM (inactive) |
| CCN(CC)c1ccc(/C=C2\C(=N)N3N=C(CC(=O)N4CCOCC4)SC3=NC2=O)cc1 | inactive |
| CCOc1ccc2[nH]c3c(N4CCN(C(=O)c5ccco5)CC4)ncnc3c2c1 | inactive |

More lines, now with the values ahead:

| IC50 | SMILES |
| --- | --- |
| > 54.7 µM (inactive) | Cn1c(SCc2nc3ccccc3[nH]2)nnc1-c1cccc(Cl)c1 |
| > 54.7 µM (inactive) | O=C(CSc1nnc(-c2cccc(Cl)c2)n1Cc1ccco1)Nc1ccc2c(c1)OCCO2 |
| > 54.7 µM (inactive) | O=C(Nc1cccc(C(F)(F)F)c1)c1csc(-c2ccccc2)n1 |
| > 54.7 µM (inactive) | O=C(CSc1nnc(-c2cccc(Cl)c2)n1Cc1ccco1)Nc1ccccc1C(F)(F)F |
| 3.09 µM | Clc1cccc(-c2nnc(SCc3nc4ccccc4[nH]3)n2Cc2ccco2)c1 |
| > 54.7 µM (inactive) | Clc1cccc(-c2nnc(SCc3nc4ccccc4[nH]3)n2-c2ccccc2)c1 |
| > 54.7 µM (inactive) | O=C(Nc1cccc(C(F)(F)F)c1)c1csc(-c2cccc(C(F)(F)F)c2)n1 |
| > 54.7 µM (inactive) | O=C(Nc1cccc(C(F)(F)F)c1)c1csc(Cc2cccc(C(F)(F)F)c2)n1 |
| 2.17 µM | O=c1c2ccccc2sn1-c1cc(S(=O)(=O)N2CCOCC2)ccc1N1CCOCC1 |
| > 54.7 µM (inactive) | Cc1ccc(C)c(N2C(=N)S/C(=C\c3ccc(-c4ccccc4C(=O)O)o3)C2=O)c1 |
| > 54.7 µM (inactive) | O=C(CSc1nnc(-c2cccc(Cl)c2)n1Cc1ccco1)Nc1ccc2cn[nH]c2c1 |
| 7.32 µM | Cc1c(CCC(=O)NCCCn2ccnc2)c(=O)oc2cc3oc4c(c3cc12)CCCC4 |
